Data on 4 compounds can be found in the NIST ThermoML archive (doi:10.1016/j.jct.2016.12.033).

The conditions of data set [1]: 101.3 kPa, Liquid; for viscosity: Capillary tube (Ostwald / Ubbelohde) method; for mass density: Pycnometric method.
Data set [2] can be described thus: mn = molality of the nth substance listed, in mol/kg. As to conditions: 101.3 kPa, Liquid, m2 = 0; for viscosity: Capillary tube (Ostwald / Ubbelohde) method; for mass density: Pycnometric method.

Numbers after ± are expanded uncertainties.

With `O` [water], the results for the viscosity in data set [1] (275.15 K), in data set [1] (277.15 K) and in data set [1] (279.15 K) were 1.674 ± 0.035 mPa·s, 1.567 ± 0.032 mPa·s and 1.472 ± 0.03 mPa·s, respectively. For the same compound, the mass density (usually mass per unit of volume) in data set [1] (275.15 K) is recorded as 999.94 ± 0.28 kg/m3; in data set [1] (277.15 K), 999.97 ± 0.28 kg/m3; in data set [1] (279.15 K) it was 999.94 ± 0.28 kg/m3.

As for `O` [water] + Cc1ncc(CO)c(CO)c1O.Cl, the viscosity (in general, the internal friction of a fluid under shear) in data set [2] (275.15 K) was 1.674 ± 0.035 mPa·s; in data set [2] (277.15 K), 1.567 ± 0.032 mPa·s; in data set [2] (279.15 K) it was 1.472 ± 0.03 mPa·s. The values for the mass density in data set [2] (275.15 K), in data set [2] (277.15 K) and in data set [2] (279.15 K) were 999.94 ± 0.28 kg/m3, 999.97 ± 0.28 kg/m3 and 999.94 ± 0.27 kg/m3, respectively.

With `O` [water] + Cc1ncc(C[n+]2csc(CCO)c2C)c(N)n1.Cl.[Cl-], the viscosity in data set [2] (275.15 K) turned out to be 1.674 ± 0.035 mPa·s; in data set [2] (277.15 K), 1.567 ± 0.032 mPa·s; in data set [2] (279.15 K), 1.472 ± 0.03 mPa·s. Besides, the mass density in data set [2] (275.15 K) was found to be 999.94 ± 0.28 kg/m3; in data set [2] (277.15 K) it was 999.97 ± 0.28 kg/m3; in data set [2] (279.15 K) it was 999.94 ± 0.28 kg/m3.

For the compound `O` [water] + O=C1O[C@H]([C@@H](O)CO)C([O-])=C1O.[Na+], the viscosity in data set [2] (275.15 K) is 1.674 ± 0.035 mPa·s; in data set [2] (277.15 K) it was 1.567 ± 0.032 mPa·s; in data set [2] (279.15 K) it was 1.472 ± 0.03 mPa·s. Moreover, the figures for the mass density in data set [2] (275.15 K), in data set [2] (277.15 K) and in data set [2] (279.15 K) were 999.94 ± 0.29 kg/m3, 999.97 ± 0.28 kg/m3 and 999.94 ± 0.28 kg/m3, respectively.
